Reference: US20230172940A1, “METHODS OF EXTENDING LIFESPAN BY ADMINISTERING FERROPTOSIS INHIBITORS” (COLLABORATIVE MEDICINAL DEVELOPMENT, LLC, priority 2020, published 2023)

Key:
C. elegans = conditions: iron chelators, literature reports; cited from earlier work
OP50 E. coli = assay: Bacterial growth assay (OD600); assay type: cell-based, Escherichia coli; conditions: 50 or 100 μg/mL; after 12 hours, 37° C
Procedure: The effects of test compounds on growth of the OP50 E. coli feed was assayed using optical density at 600 nm (OD600). Using standard microtitre plates, replicate wells of 200 μL of sterile Luria broth were inoculated with 2 μL of an overnight OP50 culture in addition to the stated final concentrations of ampicillin (Amp), Lip-1 and SIH. OD600 measures were taken after 12 hours in an EnSpire (PerkinElmer) spectrophotometric plate reader preset to 37° C., with 30 sec of 200 rpm orbital shaking every 10 minutes.
Data was averaged across duplicate experiments, each with eight replicate wells per treatment where a baseline of Luria broth without an inoculate was subtracted.

Row | Compound | effect on C. elegans lifespan as reported (C. elegans) | growth of OP50 E. coli (OD600) (OP50 E. coli)
1 | Cc1c(O)c(=O)ccn1C [deferiprone] | not to impact C. elegans lifespan | 
2 | CC1(C)S[C@@H]2[C@H](NC(=O)[C@H](N)c3ccccc3)C(=O)N2[C@H]1C(=O)O [ampicillin] |  | completely suppressed bacterial growth
3 | O=C(O)CN(CCN(CC(=O)O)CC(=O)O)CC(=O)O.[Ca] [CaEDTA, calcium-ethylenediaminetetraacetic acid] | minor (undisclosed) increase in lifespan | 
